Assay results taken from patent US20190209712A1, “HUMANIZED MURINE MODEL OF CHRONIC HEPATITIS B CONSTRUCTED USING STEM CELLS AND METHOD OF USING SAME” (Zhejiang University, priority 2017, published 2019).

System: HBV
Assay: Efficacy of and drug resistance to antiviral drugs in humanized rat model of chronic hepatitis B (HBV viral load)
Format: in vivo
Conditions: humanized rats with chronic hepatitis B; therapeutic dose; 1, 2, 4, 8, 12 and 24 weeks after treatment; FIG. 2
Protocol: The Study of Efficacy of and Drug Resistance to the Antiviral Drugs Using a Humanized Rat Model of Chronic Hepatitis B • 1. 200 humanized rats with chronic hepatitis B were randomly divided into four groups. There were no significant differences in age, gender, weight and baseline of HBV viral load among the groups. • 2. Therapeutic dose of commonly used antiviral drugs lamivudine, telbivudine, entecavir and tenofovir were administered to each of the four groups, respectively. • 3. At 1 week, 2 weeks, 4 weeks, 8 weeks, 12 weeks and 24 weeks after the treatment, the viral load of HBV in each group of rats was detected, respectively. • 4. Curves were plotted based on the viral load in each group at each time point. The difference between the groups was compared to evaluate the efficacy of and drug resistance to existing commonly used antiviral drugs.

Compound | drop of the viral titer curves (viral load of HBV)
C=C1[C@H](CO)[C@@H](O)C[C@@H]1n1cnc2c(=O)[nH]c(N)nc21 [entecavir] | superior to those of the telbivudine group and the lamivudine group
C[C@H](Cn1cnc2c(N)ncnc21)OCP(=O)(O)O [tenofovir] | superior to those of the telbivudine group and the lamivudine group
